Measurements: US11873295B2, “Allosteric chromenone inhibitors of phosphoinositide 3-kinase (PI3K) for the treatment of disease” (Petra Pharma Corporation, priority 2021, dated 2024)

How the values were obtained:
[1] = biological target: T1, human full length PIK3KA Wild-type (p110α/p85α complex) (Homo sapiens, UniProt P42336); assay: PI3K-alpha kinase (PIK3CA) biochemical activity, wild-type, ADP-Glo; conditions: PI3K-α (PIK3CA) biochemical
T1 construct: Recombinant, catalytically active human full length PIK3KA Wild-type and H1047R mutant were purchased as 1:1 complex; 6xHis (N); purchased EMD Millipore Sigma 14-602M
Excerpt: (§1) PI3K-Alpha Kinase (PIK3CA) Activity, Wild-Type and H1047R Mutant and Determining IC50 Values for Inhibitors
(§2) Recombinant, catalytically active human full length PIK3KA Wild-type and H1047R mutant were purchased as 1:1 complex of N-terminal 6× his tagged p110α (catalytic) and untagged p85α (regulatory subunit) from EMD Millipore Sigma (cat. no. 14-602M and 14-792M, respectively). PIP2diC8 (Avanti Polar Lipids Inc., cat. no. 850185) or Soy PI (Avanti Polar Lipids Inc., cat. No. 840044P) was used as lipid substrate. PIP2diC8 or PI lyophilized powder was dissolved in milliQ water to a concentration of 1 mM just before use. 10 mM stock compounds in DMSO were serially diluted 1:3 to generate a 10-point curve and plated using an acoustic liquid handler system (Echo 550 series instrument, Labcyte). A 10× intermediate compound plate (200 uM starting compound concentration and 10% DMSO) was prepared before starting the reaction. A typical reaction mixture (50 uL) comprised 40 mM HEPES buffer, pH 7.4, 25 mM MgCl2, 0.01% v/v triton-X-100, 1% v/v DMSO, 20 mM NaCl, 1-5 nM WT or H1047R PI3K protein, 20 uM ATP, and 50 uM PIP2diC8 or Soy PI. 1% DMSO buffer alone without test compound was employed as MAX control (full activity in the absence of any inhibitor), and no enzyme control was used to determine the level of background Adenosine 5′-diphosphate (ADP) (MIN control). First, Wild-type (WT) and H1047R mutant protein in kinase buffer with all components except ATP were incubated with or without compound at 27° C. for 1 h. After the pre-incubation, the reaction was initiated by the addition of 20 uL of 50 uM ATP (20 uM final concentration). The reaction was allowed to proceed until about 10% conversion of ATP (2 uM ADP) at 27° C. After that time, 5 uL of reaction was mixed with 5 uL of ADP-Kinase Glo Reagent (ADP-Glo Kinase assay kit, Promega cat. no. V9102) supplemented with MgCl2 10 mM to stop the reaction and deplete the remaining ATP for 40 min at room temperature. Then, 10 uL of Kinase Detection Reagent (ADP-Glo Kinase assay kit, Promega cat. no. V9102) was added to simultaneously convert ADP to ATP and allow the newly synthesized ATP to be measured using a luciferase/luciferin reaction. After 30 min at room temperature the light generated was measured using a luminometer (EnVision plate reader, Perkin Elmer). Process data through Genedata-Screener tool. Relative IC50 values are determined using luminescence units by calculating percent inhibition with respect to on-plate “MIN” and “MAX” controls. Data was analyzed using a 4-parameter nonlinear logistic equation (four-parameter logistic concentration-response curve): Y=bot+[(top−bot)/1+(x/IC50)slope] where Y=% inhibition, X=concentration yielding y % inhibition, Bottom=minimum value of y attained by curve, Top=maximum value of y attained by curve and Slope=steepness of curve at IC50. % Inh=[(median Max−x/median Max−median Min)]·100 IC50: concentration of compound that reduces a given response (ligand binding, enzyme response) by 50%. IC50 relative: concentration giving half the compound's maximum response.
(§3) For IC50 values shown in Table A, “A” means IC50<0.5 μM; “B” means IC50 ranging between 0.5 μM and 1.0 μM; “C” means IC50 ranging between 1 μM and 5 μM; “D” means IC50 ranging between 5 μM and 10 μM; “E” means IC50>10 μM.

[2] = biological target: T2, human full length PIK3KA H1047R mutant (p110α/p85α complex) (Homo sapiens, UniProt P42336, H1047R); assay: PI3K-alpha kinase (PIK3CA) biochemical activity, H1047R mutant, ADP-Glo; conditions: PI3K-α (PIK3CA) biochemical, H1047R mutant
T2 construct: Recombinant, catalytically active human full length PIK3KA Wild-type and H1047R mutant were purchased as 1:1 complex; 6xHis (N); purchased EMD Millipore Sigma 14-792M
T2 sequence (P42336 whole entry H1047R): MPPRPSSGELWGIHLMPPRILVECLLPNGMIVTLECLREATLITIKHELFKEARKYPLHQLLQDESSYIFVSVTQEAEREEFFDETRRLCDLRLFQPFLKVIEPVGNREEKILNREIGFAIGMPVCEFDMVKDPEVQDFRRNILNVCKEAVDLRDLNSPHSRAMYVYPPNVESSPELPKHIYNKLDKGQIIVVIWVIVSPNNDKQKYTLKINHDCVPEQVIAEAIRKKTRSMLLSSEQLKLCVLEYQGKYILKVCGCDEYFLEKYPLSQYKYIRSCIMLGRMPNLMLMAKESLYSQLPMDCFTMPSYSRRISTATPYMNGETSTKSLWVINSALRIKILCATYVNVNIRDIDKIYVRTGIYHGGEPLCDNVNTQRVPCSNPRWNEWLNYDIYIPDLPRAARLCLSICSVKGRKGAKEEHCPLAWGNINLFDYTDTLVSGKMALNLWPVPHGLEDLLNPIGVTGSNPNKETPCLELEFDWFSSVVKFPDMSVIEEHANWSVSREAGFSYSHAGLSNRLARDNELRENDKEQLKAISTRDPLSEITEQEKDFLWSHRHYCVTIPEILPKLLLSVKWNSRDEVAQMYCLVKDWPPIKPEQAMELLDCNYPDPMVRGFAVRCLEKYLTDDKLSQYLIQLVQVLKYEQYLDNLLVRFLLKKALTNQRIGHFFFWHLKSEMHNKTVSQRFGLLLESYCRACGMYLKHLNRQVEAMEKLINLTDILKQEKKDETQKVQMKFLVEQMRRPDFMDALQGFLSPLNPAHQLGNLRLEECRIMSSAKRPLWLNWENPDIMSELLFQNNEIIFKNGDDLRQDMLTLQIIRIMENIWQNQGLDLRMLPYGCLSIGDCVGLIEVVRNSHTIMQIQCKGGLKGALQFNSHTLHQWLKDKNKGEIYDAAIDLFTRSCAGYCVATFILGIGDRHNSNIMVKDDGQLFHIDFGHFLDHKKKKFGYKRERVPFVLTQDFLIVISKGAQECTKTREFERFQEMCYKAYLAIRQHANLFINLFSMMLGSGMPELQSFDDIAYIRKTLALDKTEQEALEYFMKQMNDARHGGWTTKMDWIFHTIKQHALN
T2 sequence (P27986 whole entry partner): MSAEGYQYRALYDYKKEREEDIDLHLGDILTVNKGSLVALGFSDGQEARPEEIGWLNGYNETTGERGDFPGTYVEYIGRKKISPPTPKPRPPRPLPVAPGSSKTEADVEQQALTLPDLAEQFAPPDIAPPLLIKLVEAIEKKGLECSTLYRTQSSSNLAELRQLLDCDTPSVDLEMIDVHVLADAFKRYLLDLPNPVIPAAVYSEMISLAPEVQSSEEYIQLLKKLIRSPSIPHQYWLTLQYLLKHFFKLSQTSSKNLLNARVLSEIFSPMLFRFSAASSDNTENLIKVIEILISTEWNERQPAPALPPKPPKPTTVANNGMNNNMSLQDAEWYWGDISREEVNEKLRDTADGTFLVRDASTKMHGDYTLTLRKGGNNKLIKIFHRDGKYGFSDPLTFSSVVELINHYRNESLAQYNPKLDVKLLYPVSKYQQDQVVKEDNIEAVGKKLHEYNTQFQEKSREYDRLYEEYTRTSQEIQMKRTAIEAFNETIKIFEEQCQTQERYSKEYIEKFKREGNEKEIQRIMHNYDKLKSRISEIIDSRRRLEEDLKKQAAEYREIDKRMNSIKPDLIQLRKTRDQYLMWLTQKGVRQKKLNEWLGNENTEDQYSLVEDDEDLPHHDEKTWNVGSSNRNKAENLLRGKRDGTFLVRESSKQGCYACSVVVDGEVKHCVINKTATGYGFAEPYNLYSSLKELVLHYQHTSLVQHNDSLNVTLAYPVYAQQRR
Excerpt: as §1, §2, §3

[3] = PIP2diC8 lipid substrate (footnote 1)

| SMILES | IC50 ([1]; Soy PI lipid substrate) [nM] | IC50 ([2]; Soy PI lipid substrate) [nM] | IC50 [1, 3] [nM] | IC50 [2, 3] [nM] |
| --- | --- | --- | --- | --- |
| Cc1cc([C@@H](C)Nc2ccccc2C(=O)O)c2oc(-c3ccc(C#N)cc3)cc(=O)c2c1 [Example 17, 2-[[(1R)-1-[2-(4-Cyanophenyl)-6-methyl-4-oxo-chromen-8-yl]ethyl]amino]benzoic acid] | – | – | < 500 | < 500 |
| Cc1cc(C(C)Nc2ccccc2C(=O)O)c2oc(-c3cccc(C(C)(C)C#N)c3)cc(=O)c2c1 (stereo not drawn) [Example 3, 2-[1-[2-[3-(1-Cyano-1-methyl-ethyl)phenyl]-6-methyl-4-oxo-chromen-8-yl]ethylamino]benzoic acid 2,2,2-trifluoroacetic acid] | 5000 to 10000 | < 500 | – | – |
| Cc1cc(C(C)Nc2ccccc2C(=O)O)c2oc(-c3cccc(C(C)(C)C#N)c3)cc(=O)c2c1 (single isomer, unassigned; isomer 2) [Example 5, 2-[1-[2-[3-(1-Cyano-1-methyl-ethyl)phenyl]-6-methyl-4-oxo-chromen-8-yl]ethylamino]benzoic acid, Isomer 2] | > 10000 | < 500 | – | – |
| Cc1cc(C(C)Nc2ccccc2C(=O)O)c2oc(-c3ccc(S(C)(=O)=O)cc3)cc(=O)c2c1 (single isomer, unassigned; isomer 1) [Example 47, 2-[1-[6-Methyl-2-(4-methylsulfonylphenyl)-4-oxo-chromen-8-yl]ethylamino]benzoic acid, Isomer 1] | > 10000 | > 10000 | – | – |
| Cc1cc([C@@H](C)Nc2ccccc2C(=O)O)c2oc(-c3ccccc3C#N)c(C)c(=O)c2c1 [Example 34, 2-[[(1R)-1-[2-(2-Cyanophenyl)-3,6-dimethyl-4-oxo-chromen-8-yl]ethyl]amino]benzoic acid] | > 10000 | < 500 | – | – |
| Cc1cc([C@@H](C)Nc2ccc(C(F)(F)F)nc2C(=O)O)c2oc(-c3ccccc3)cc(=O)c2c1 [Example 27, 3-[[(1R)-1-(6-Methyl-4-oxo-2-phenyl-chromen-8-yl)ethyl]amino]-6-(trifluoromethyl)-pyridine-2-carboxylic acid] | 1000 to 5000 | < 500 | – | – |

Results, then the compound that gave them:

| IC50 ([1]; Soy PI lipid substrate) [nM] | IC50 ([2]; Soy PI lipid substrate) [nM] | IC50 [1, 3] [nM] | IC50 [2, 3] [nM] | SMILES |
| --- | --- | --- | --- | --- |
| 5000 to 10000 | > 10000 | – | – | CC(Nc1ccccc1C(=O)O)c1cc(C(F)(F)F)cc2c(=O)cc(-c3ccccc3)oc12 (single isomer, unassigned; isomer 1) [Example 86, 2-[1-[4-Oxo-2-phenyl-6-(trifluoromethyl)-chromen-8-yl]ethylamino]benzoic acid, Isomer 1] |
| 5000 to 10000 | < 500 | – | – | Cc1c(-c2cccc(C(F)F)c2)oc2c([C@@H](C)Nc3ccccc3C(=O)O)cc(F)cc2c1=O [Example 83, 2-[[(1R)-1-[2-[3-(Difluoromethyl)phenyl]-6-fluoro-3-methyl-4-oxo-chromen-8-yl]ethyl]amino]benzoic acid 2,2,2-trifluoroacetic acid] |
| < 500 | < 500 | – | – | Cc1cc(C(C)Nc2cccc(F)c2C(=O)O)c2oc(-c3ccccc3F)c(C)c(=O)c2c1 (single isomer, unassigned; isomer 1) [Example 103, 2-Fluoro-6-[1-[2-(2-fluorophenyl)-3,6-dimethyl-4-oxo-chromen-8-yl]ethylamino]benzoic acid, Isomer 1] |
| 1000 to 5000 | < 500 | – | – | Cc1cc([C@@H](C)Nc2ccccc2C(=O)O)c2oc(-c3ccc(C#N)cc3F)cc(=O)c2c1 [Example 51, 2-[[(1R)-1-[2-(4-Cyano-2-fluoro-phenyl)-6-methyl-4-oxo-chromen-8-yl]ethyl]amino]benzoic acid 2,2,2-trifluoroacetic acid] |
| 1000 to 5000 | < 500 | – | – | Cc1cc([C@@H](C)Nc2ccccc2C(=O)O)c2oc(-c3cccc(C(F)F)c3)cc(=O)c2c1 [Example 71, 2-[[(1R)-1-[2-[3-(Difluoromethyl)phenyl]-6-methyl-4-oxo-chromen-8-yl]ethyl]amino]benzoic acid] |
| > 10000 | < 500 | – | – | Cc1cc(C(C)Nc2ccccc2C(=O)O)c2oc(-c3ccc(S(C)(=O)=O)cc3)cc(=O)c2c1 (single isomer, unassigned; isomer 2) [Example 48, 2-[1-[6-Methyl-2-(4-methylsulfonylphenyl)-4-oxo-chromen-8-yl]ethylamino]benzoic acid, Isomer 2] |
